{
  "source": "ChEMBL document CHEMBL4043275",
  "about": "“Design, synthesis and biological evaluation of phthalimide-alkylamine derivatives as balanced multifunctional cholinesterase and monoamine oxidase-B inhibitors for the treatment of Alzheimer's disease” (Bioorg Med Chem Lett, 2017)",
  "key": {"[1]": {"target": "Acetylcholinesterase (Electrophorus electricus, UniProt O42275)", "sequence (O42275 whole entry)": "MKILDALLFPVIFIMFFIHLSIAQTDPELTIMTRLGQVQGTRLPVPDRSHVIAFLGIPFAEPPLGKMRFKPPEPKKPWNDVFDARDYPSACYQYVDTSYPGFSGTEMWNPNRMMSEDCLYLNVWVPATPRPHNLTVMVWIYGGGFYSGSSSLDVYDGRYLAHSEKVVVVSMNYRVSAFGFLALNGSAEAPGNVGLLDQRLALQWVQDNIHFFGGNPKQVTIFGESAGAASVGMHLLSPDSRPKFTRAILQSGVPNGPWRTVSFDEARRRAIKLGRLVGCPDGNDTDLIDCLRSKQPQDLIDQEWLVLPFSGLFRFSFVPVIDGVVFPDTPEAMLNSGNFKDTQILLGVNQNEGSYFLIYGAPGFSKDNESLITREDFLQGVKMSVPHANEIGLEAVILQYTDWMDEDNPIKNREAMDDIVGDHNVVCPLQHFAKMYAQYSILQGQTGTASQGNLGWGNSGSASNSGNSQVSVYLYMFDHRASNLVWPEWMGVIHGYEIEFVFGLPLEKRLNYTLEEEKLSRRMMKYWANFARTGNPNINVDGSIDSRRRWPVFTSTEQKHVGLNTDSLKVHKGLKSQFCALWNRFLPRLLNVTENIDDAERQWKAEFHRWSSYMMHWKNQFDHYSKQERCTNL", "experiment": "Inhibition of electric eel AChE using acetylthiocholine chloride as substrate incubated for 15 mins by Ellman's method"}, "[2]": {"target": "Cholinesterase (Equus caballus, UniProt P81908)", "sequence (P81908 whole entry)": "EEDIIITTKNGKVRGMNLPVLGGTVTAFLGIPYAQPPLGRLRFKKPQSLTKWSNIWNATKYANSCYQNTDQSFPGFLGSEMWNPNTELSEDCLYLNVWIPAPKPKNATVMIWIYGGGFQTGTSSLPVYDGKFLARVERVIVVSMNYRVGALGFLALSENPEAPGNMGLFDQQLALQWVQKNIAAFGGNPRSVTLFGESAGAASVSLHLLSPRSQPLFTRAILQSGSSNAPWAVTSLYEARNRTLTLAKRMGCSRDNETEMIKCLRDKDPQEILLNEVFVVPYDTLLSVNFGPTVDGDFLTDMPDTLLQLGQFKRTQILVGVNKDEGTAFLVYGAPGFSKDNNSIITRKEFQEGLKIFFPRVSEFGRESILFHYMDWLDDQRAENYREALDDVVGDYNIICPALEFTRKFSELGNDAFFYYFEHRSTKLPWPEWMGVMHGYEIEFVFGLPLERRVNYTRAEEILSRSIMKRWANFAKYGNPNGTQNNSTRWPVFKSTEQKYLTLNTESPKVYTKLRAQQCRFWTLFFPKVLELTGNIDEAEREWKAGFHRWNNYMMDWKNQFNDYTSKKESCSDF", "experiment": "Inhibition of equine serum BChE using butyrylthiocholine chloride as substrate incubated for 15 mins by Ellman's method"}, "[3]": {"experiment": "Selectivity index, ratio of IC50 for equine serum BChE to IC50 for electric eel AChE"}, "[4]": {"target": "T1, Acetylcholinesterase (Rattus norvegicus, UniProt P37136)", "T1 sequence (P37136 whole entry)": "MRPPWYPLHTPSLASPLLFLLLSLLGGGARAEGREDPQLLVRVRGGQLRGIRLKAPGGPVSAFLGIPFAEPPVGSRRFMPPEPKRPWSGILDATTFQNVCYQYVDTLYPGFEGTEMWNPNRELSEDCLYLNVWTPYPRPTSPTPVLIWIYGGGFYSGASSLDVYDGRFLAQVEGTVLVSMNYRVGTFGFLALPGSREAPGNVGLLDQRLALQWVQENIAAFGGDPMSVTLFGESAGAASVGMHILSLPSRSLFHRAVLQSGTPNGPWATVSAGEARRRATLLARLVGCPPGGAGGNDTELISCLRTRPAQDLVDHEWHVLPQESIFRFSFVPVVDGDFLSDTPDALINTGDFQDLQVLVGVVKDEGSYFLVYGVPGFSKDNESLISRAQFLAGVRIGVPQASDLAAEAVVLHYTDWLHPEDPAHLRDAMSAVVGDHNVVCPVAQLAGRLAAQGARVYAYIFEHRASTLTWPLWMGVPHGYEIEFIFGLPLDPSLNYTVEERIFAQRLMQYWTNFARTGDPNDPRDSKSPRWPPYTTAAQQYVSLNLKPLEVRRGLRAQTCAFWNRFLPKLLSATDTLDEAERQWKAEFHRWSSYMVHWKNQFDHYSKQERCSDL", "experiment": "Inhibition of rat cortex homogenate AChE using acetylthiocholine chloride as substrate incubated for 15 mins by Ellman's method"}, "[5]": {"target": "Butyrylcholinesterase (Rattus norvegicus, UniProt Q9JKC1)", "sequence (Q9JKC1 whole entry)": "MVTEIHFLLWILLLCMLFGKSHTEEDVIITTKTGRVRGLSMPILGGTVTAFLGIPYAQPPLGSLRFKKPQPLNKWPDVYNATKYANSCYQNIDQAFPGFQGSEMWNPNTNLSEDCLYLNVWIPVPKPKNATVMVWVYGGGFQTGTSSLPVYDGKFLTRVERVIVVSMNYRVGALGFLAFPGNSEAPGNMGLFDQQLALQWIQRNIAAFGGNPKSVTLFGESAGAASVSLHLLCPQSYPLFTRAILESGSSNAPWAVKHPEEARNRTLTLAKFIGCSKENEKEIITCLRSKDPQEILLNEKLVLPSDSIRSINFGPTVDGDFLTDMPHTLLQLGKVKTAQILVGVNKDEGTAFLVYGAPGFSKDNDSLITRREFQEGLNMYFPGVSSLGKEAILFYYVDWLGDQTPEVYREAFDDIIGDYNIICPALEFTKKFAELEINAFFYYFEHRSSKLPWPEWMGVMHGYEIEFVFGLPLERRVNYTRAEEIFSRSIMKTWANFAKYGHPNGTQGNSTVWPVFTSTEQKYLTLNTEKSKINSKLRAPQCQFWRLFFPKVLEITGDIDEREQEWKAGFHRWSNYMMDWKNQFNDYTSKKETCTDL", "experiment": "Inhibition of rat serum BChE using butyrylthiocholine chloride as substrate incubated for 15 mins by Ellman's method"}, "[6]": {"target": "Acetylcholinesterase (Homo sapiens, UniProt P22303)", "sequence (P22303 whole entry)": "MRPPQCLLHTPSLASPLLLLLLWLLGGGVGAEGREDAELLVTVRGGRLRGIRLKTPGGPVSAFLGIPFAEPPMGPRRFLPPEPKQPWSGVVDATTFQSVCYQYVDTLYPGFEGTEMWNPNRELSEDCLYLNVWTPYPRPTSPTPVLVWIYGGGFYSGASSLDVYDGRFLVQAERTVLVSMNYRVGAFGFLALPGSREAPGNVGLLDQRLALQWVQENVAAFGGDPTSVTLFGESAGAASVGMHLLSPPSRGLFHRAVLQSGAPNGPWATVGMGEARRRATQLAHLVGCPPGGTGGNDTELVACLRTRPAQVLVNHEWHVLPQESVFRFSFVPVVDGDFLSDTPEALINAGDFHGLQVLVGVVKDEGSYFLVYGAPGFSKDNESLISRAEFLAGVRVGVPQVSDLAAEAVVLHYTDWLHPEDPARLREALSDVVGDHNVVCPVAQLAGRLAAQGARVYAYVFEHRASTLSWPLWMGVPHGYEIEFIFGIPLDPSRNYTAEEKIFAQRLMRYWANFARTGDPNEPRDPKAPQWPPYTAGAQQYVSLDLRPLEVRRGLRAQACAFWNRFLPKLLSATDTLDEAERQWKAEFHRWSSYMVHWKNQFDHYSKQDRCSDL", "experiment": "Inhibition of human erythrocyte AChE using acetylthiocholine chloride as substrate incubated for 15 mins by Ellman's method"}, "[7]": {"target": "Cholinesterase (Homo sapiens, UniProt P06276)", "sequence (P06276 whole entry)": "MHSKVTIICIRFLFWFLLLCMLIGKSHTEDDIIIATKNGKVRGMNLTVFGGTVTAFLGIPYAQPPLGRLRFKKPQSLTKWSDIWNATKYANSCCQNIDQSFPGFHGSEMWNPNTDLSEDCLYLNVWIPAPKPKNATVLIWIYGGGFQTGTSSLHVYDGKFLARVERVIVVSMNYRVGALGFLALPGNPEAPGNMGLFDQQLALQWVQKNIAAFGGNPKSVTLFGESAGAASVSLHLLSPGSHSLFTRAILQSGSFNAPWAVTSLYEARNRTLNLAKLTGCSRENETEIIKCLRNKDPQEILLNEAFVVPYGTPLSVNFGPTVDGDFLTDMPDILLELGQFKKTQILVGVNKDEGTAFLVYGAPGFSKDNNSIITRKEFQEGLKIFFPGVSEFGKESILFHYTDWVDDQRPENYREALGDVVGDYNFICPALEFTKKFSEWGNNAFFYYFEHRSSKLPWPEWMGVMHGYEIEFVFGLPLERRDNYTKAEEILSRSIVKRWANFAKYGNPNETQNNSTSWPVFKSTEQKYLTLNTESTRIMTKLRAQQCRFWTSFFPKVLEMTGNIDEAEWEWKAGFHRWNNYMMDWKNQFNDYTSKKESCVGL", "experiment": "Inhibition of human serum BChE using butyrylthiocholine chloride as substrate incubated for 15 mins by Ellman's method"}, "[8]": {"target": "T2, Amine oxidase [flavin-containing] B (Homo sapiens, UniProt P27338)", "T2 sequence (P27338 whole entry)": "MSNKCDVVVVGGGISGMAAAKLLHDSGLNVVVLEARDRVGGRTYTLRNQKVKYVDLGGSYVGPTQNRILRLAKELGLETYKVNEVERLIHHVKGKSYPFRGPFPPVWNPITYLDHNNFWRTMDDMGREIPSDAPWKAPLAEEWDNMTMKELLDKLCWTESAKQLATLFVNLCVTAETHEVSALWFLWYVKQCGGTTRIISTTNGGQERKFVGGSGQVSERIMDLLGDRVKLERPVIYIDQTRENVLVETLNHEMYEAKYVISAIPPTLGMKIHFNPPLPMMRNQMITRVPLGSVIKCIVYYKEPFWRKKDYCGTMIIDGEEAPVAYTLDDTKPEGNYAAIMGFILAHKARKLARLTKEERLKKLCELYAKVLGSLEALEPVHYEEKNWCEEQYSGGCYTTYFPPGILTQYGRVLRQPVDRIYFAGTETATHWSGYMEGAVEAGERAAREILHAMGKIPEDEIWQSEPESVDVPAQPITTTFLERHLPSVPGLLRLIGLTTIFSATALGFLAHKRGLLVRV", "experiment": "Inhibition of human recombinant MAO-B expressed in baculovirus infected BTI insect cells using kynuramine as substrate after 30 mins by fluorescence assay", "type": "cell-based"}, "[9]": {"target": "T3, Amine oxidase [flavin-containing] A (Homo sapiens, UniProt P21397)", "T3 sequence (P21397 whole entry)": "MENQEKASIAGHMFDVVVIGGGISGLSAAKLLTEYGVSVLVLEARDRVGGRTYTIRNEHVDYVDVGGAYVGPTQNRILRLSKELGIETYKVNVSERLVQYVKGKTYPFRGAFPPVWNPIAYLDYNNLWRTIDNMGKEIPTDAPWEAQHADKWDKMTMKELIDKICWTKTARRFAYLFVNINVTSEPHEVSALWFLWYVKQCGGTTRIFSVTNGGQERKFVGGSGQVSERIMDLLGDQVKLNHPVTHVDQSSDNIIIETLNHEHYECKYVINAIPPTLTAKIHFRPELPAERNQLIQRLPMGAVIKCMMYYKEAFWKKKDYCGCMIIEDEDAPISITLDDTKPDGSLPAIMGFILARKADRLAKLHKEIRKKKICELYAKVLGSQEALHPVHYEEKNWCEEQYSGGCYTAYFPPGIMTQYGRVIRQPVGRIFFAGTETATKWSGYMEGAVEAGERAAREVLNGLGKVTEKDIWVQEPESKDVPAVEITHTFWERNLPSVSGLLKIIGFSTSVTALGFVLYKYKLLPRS", "experiment": "Inhibition of human recombinant MAO-A expressed in baculovirus infected BTI insect cells at 20 uM using kynuramine as substrate after 30 mins by fluorescence assay relative to control", "conditions": "0.5 h"}, "[10]": {"target": "Acetylcholinesterase (Electrophorus electricus) (UniProt O42275)", "sequence (O42275 24-633 limits assumed)": "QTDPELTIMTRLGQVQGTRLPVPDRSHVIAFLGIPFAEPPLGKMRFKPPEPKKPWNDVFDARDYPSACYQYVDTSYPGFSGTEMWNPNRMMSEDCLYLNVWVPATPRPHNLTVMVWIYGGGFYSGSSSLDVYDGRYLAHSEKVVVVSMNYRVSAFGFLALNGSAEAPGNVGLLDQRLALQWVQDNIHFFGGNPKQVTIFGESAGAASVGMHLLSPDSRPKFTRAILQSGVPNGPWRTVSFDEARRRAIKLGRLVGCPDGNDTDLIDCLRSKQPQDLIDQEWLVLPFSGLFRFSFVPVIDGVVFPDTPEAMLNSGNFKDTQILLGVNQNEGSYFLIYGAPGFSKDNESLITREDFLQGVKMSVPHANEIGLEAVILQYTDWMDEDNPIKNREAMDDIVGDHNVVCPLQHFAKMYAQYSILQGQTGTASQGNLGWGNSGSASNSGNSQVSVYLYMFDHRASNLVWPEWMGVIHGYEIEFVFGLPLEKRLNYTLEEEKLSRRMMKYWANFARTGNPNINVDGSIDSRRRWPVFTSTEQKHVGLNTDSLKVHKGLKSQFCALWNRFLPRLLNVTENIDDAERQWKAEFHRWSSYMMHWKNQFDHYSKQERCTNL", "experiment": "Mixed-type inhibition of electric eel AChE at 0.5 to 2 uM using acetylthiocholine chloride as substrate by Lineweaver-Burk plot analysis"}, "[11]": {"test_system": "SH-SY5Y", "experiment": "Cytotoxicity against human SH-SY5Y cells assessed as decrease in cell viability up to 10 uM after 24 hrs by MTT assay", "type": "cell-based"}, "[12]": {"test_system": "SH-SY5Y", "experiment": "Cytotoxicity against human SH-SY5Y cells assessed as decrease in cell viability at 100 uM after 24 hrs by MTT assay", "type": "cell-based"}, "[13]": {"experiment": "Effective permeability of the compound at 100 ug/ml by PAMPA-BBB assay"}, "[14]": {"target": "Acetylcholinesterase (Electrophorus electricus) (UniProt O42275)", "experiment": "Inhibition of electric eel AChE at 50 uM using acetylthiocholine chloride as substrate incubated for 15 mins by Ellman's method relative to control"}, "[15]": {"target": "Cholinesterase (Equus caballus) (UniProt P81908)", "sequence (P81908 whole entry)": "as the sequence (P81908 whole entry) above", "experiment": "Inhibition of equine serum BChE at 50 uM using butyrylthiocholine chloride as substrate incubated for 15 mins by Ellman's method relative to control"}, "[16]": {"target": "T4, Acetylcholinesterase (Rattus norvegicus) (UniProt P37136)", "T4 sequence (whole entry)": "T1 sequence (P37136 whole entry)", "experiment": "Inhibition of rat cortex homogenate AChE at 50 uM using acetylthiocholine chloride as substrate incubated for 15 mins by Ellman's method relative to control"}, "[17]": {"target": "Butyrylcholinesterase (Rattus norvegicus) (UniProt Q9JKC1)", "sequence (Q9JKC1 as listed by the source)": "as the sequence (Q9JKC1 whole entry) above", "experiment": "Inhibition of rat serum BChE at 50 uM using butyrylthiocholine chloride as substrate incubated for 15 mins by Ellman's method relative to control"}},
  "note": "The source made the active and inactive calls. The rule behind the calls is not given here.",
  "data": [
    {"smiles": "C#CCN(CCCN1C(=O)c2ccccc2C1=O)Cc1ccccc1", "values": [
      {"measurement": "IC50", "setting": "[1]", "value": 840, "unit": "nM"},
      {"measurement": "IC50", "setting": "[2]", "value": 2500, "unit": "nM"},
      {"measurement": "Ratio IC50", "setting": "[3]", "value": 3},
      {"measurement": "IC50", "setting": "[4]", "value": 270, "unit": "nM"},
      {"measurement": "IC50", "setting": "[5]", "value": 2200, "unit": "nM"},
      {"measurement": "IC50", "setting": "[6]", "value": 1200, "unit": "nM"},
      {"measurement": "IC50", "setting": "[7]", "value": 3800, "unit": "nM"},
      {"measurement": "IC50", "setting": "[8]", "value": 2600, "unit": "nM"},
      {"measurement": "inhibition at 20 µM", "setting": "[9]", "value": "< 5", "unit": "%"},
      {"measurement": "inhibition", "setting": "[10]", "value": "Active"},
      {"measurement": "Activity", "setting": "[11]", "value": "Non-Toxic"},
      {"measurement": "Activity", "setting": "[12]", "value": 86.7, "unit": "%"},
      {"measurement": "Papp at 100 ug/ml", "setting": "[13]", "value": 26, "unit": "×10⁻⁶ cm/s"}
    ]},
    {"smiles": "O=C1NC(=O)c2ccccc21", "values": [
      {"measurement": "inhibition", "setting": "[14]", "value": "< 5", "unit": "%"},
      {"measurement": "inhibition", "setting": "[15]", "value": "< 5", "unit": "%"},
      {"measurement": "inhibition", "setting": "[16]", "value": "< 5", "unit": "%"},
      {"measurement": "inhibition", "setting": "[17]", "value": "< 5", "unit": "%"}
    ]}
  ]
}
